Values quoted from earlier work, collected in US12194111B2, “Alpha emitter compositions and methods” (Nant Holdings IP, LLC, priority 2018, dated 2025).

Test system: relapsed or refractory soft tissue sarcoma
Settings: clinical trial; treatment of relapsed or refractory soft tissue sarcoma

For `COc1cccc2c1C(=O)c1c(O)c3c(c(O)c1C2=O)C[C@@](O)(/C(CO)=N/NC(=O)CCCCCN1C(=O)C=CC1=O)C[C@@H]3O[C@H]1C[C@H](N)[C@H](O)[C@H](C)O1` [aldoxorubicin], the progression free disease is listed as “did not show a significant increase in progression free disease”.
